Where a name gives a salt, the structure may show the parent alone.
Tests used:
[1] = tested on: CCl4-induced liver fibrosis; experiment: Mouse model of carbon tetrachloride (CCl4) liver fibrosis; assay type: in vivo, C57Bl6/J mice
Method: Two animal models were used: Mouse model of Carbon tetrachloride (CCl4). In this model, C57Bl6/J mice (8 weeks of age; ˜25 g) received twice a week during 4 weeks 250 μL i.p. of either olive oil or CCl4 at a dose of 3.5 ml/kg diluted in olive oil. Animals were treated with 0.2 mg/kg Minnelide after 4 weeks of CCl4.
(§1) For both models, injury and fibrosis were determined by examination of histological specimens by H&E staining as well as picrosirius red staining.

[2] = tested on: DEN+CCl4-induced liver fibrosis; experiment: Mouse model of CCl4+Diethylnitrosamine (DEN)-induced liver injury; assay type: in vivo, C57Bl6/J mice; conditions: for DEN+CCl4-induced collagen deposition (Massons Trichrome and Sirius red staining): Minnelide 0.2 mg/kg, compared to the vehicle
Method: Mouse model of CCl4+Diethylnitrosamine (DEN)-induced liver injury. C57Bl6/J mice (3 weeks of age; ˜15 g) received one single dose of DEN (25 mg/kg). From 8 weeks of age; (˜25 g) they receive twice a week during 4 weeks 250 μL i.p. of either olive oil or CCl4 at a dose of 0.2 ml/kg diluted in olive oil. Animals were treated with 0.2 mg/kg Minnelide after 4 weeks of CCl4.
as §1

DIO-NASH mouse model = experiment: Diet-induced obese (DIO) mouse model of non-alcoholic steatohepatitis (NASH); assay type: in vivo, C57BL/6JRj mice; conditions: Minnelide 0.1 mg/kg PO QD, 8 weeks; compared to vehicle treated control DIO-NASH mice
Text: To investigate the effect of 8 weeks of treatment with Minnelide alone and in combination with Elafibranor or Liraglutide in DIO-NASH mouse model, metabolic parameters, hepatic pathology and NAFLD Activity Score (NAS) including Fibrosis Stage data were collected.
Male […] mice were obtained from Janvier Labs (Le Genest Saint Isle, France). Mice had ad libitum access to tap water and either regular rodent chow (Altromin 1324, Brogaarden, Hoersholm, Denmark), or a diet high in fat (40%, containing 18% trans-fat), 40% carbohydrates (20% fructose) and 2% cholesterol (AMLN diet; D09100301, Research Diets, New Brunswick, N.J.). C57BL/6JRj mice were fed regular chow as lean chow vehicle control group or AMLN diet as DIO-NASH mice for 35 weeks prior to treatment start.
All animals included in the drug treatment experiments underwent liver biopsy for baseline characterization of hepatic parameters and stratified randomization into treatment groups. Mice are anesthetized by inhalation anesthesia using isoflurane (2-3%). […] A stratified randomization into treatment groups is performed according to liver Collagen 1a1 quantification. […]
Biochemical and histological analyses were performed as reported previously (Tølbøl, et al. World J Gastroenterol. Jan. 14, 2018; 24(2): 179-194). […] Liver homogenates were analyzed for TG and TC. […]

[3] = therapeutic intervention, CCl4 induced liver fibrosis
[4] = therapeutic intervention, DEN+CCl4 induced liver fibrosis

CC(C)[C@]12O[C@H]1[C@@H]1O[C@]13[C@]1(O[C@H]1C[C@H]1C4=C(CC[C@@]13C)C(=O)OC4)[C@@H]2OCOP(=O)(O)O [Minnelide, 14-O-phosphonooxymethyltriptolide disodium salt]
decreased: expression of Tnf-α, IL6, IL-1β and iNOS (inflammation associated genes) ([2]; 8 week time point) | expression of inflammasome genes (NLRP3, apoptosis-associated speck-like protein containing a CARD, caspase1, IL-1β, IL18) ([2]; 8 week time point)
reduction: fibrosis [1, 3] | plasma biochemical markers [1, 3] | fibrosis [2, 4] | plasma biochemical markers [2, 4]
inhibited: CCl4-induced collagen deposition (Massons Trichrome and Sirius red staining) ([1]; Minnelide 0.2 mg/kg, compared to the vehicle) | DEN+CCl4-induced collagen deposition (Massons Trichrome and Sirius red staining) [2] | DEN+CCl4-induced collagen deposition (Massons Trichrome and Sirius red staining) ([2]; 12 week time point paragraph)
18.41%: reduction in liver Galectin-3 (% fractional area) (DIO-NASH mouse model)
reduced: steatosis, ballooning, and inflammatory foci (liver H&E staining) ([1]; CCl4 administration, 8 week time point) | α-SMA expression (immunofluorescence staining) ([1]; CCl4 model) | steatosis, ballooning, and inflammatory foci (liver H&E staining) ([2]; 12 week time point) | steatosis, ballooning, and inflammatory foci (liver H&E staining) ([2]; DEN+CCl4 administration, 8 week time point) | α-SMA expression (immunofluorescence staining) ([2]; DEN+CCl4 model)

Reference: patent publication US20200085784A1, “METHODS TO TREAT FIBROSIS, NASH, AND NAFLD” (Minneamrita Therapeutics, LLC, priority 2018, published 2020)
